From the supplement of paper PMC3974653
Where a name gives a salt, the structure may show the parent alone.

System: MTT (mouse pheochromocytoma)
Experiment: IC50 of cell viability (ATP content)
Conditions: (24 or 48 h)
Procedure, shortened: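 Cells of the MTT mouse pheochromocytoma line, 5 µl per well at 200,000 cells/ml, were grown overnight at 37°C, 5% CO2 in white 1536-well plates with DMEM, 5% FBS and 1% horse serum. Pintool transfer then delivered 23 nl of library compound in DMSO, giving 8 final concentrations from 0.5 nM to 46 µM, for an exposure of 24 or 48 hrs. Luminescence from CellTiter-Glo was read after 15 minutes and referenced to positive-control wells (100%) and DMSO wells (0%). IC50 was calculated with a four-parameter logistic fit.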

| SMILES | IC50 of cell viability |
| --- | --- |
| O=C(c1cc2ccccc2o1)N1CCN(Cc2ccccc2)CC1 [Befuralina] | > 46 µM |
| CCC1(C)CC(=O)NC(=O)C1 [Bemegride] | > 46 µM |
| O=C(O)c1ccc(N[C@@H]2OC[C@@H](O)[C@@H](O)[C@@H]2O)cc1 [Benaxibine] | > 46 µM |
| CC1=C(C\C2=N\CCN2)C3=C(S1)C=CC=C3.OC(=O)C(O)=O [Benazoline oxalate] | > 46 µM |
| N[S+](=O)([O-])c1cc2c(cc1C(F)(F)F)N[C@H](Cc1ccccc1)N[S+]2(=O)[O-] [Bendroflumethiazide] | > 46 µM |
| C/C(=C(/CCOP(=O)(O)O)SC(=O)c1ccccc1)N(C=O)Cc1cnc(C)nc1N [Benfotiamine] | > 46 µM |
| CC(NNC(=O)c1ccccc1)c1ccccc1 (stereo not given) [Benmoxin] | > 46 µM |
| CCCCOc1cc(C(=O)OCCN(CC)CC)ccc1N [Benoxinate hydrochloride] | > 46 µM |
| O=C(CCCN1CCC(n2c(=O)[nH]c3ccccc32)CC1)c1ccc(F)cc1 [Benperidol] | > 46 µM |
| N[C@@H](CO)C(=O)NNCc1ccc(O)c(O)c1O [Benserazide hydrochloride] | > 46 µM |
| O=C([O-])c1ccc(NC(=O)[C@H](Cc2ccc(O)cc2)NC(=O)c2ccccc2)cc1 [Bentiromide] | > 46 µM |
| O=Cc1ccccc1 [Benzaldehyde] | > 46 µM |
| CN1[C@@H]2CC[C@H]1C[C@@H](OC(c1ccccc1)c1ccccc1)C2 [Benzatropina] | > 46 µM |
| O=C1CCC(c2ccccc2)(C2CCN(Cc3ccccc3)CC2)C(=O)N1 (stereo not given) [Benzetimidum] | > 46 µM |
| O=C(NO)c1ccccc1 [Benzhydroxamic acid] | > 46 µM |
| O=C(Cn1ccnc1[N+](=O)[O-])NCc1ccccc1 [Benznidazol] | > 46 µM |
| CCC1(c2ccccc2)C(=O)NC(=O)N(C(=O)c2ccccc2)C1=O (stereo not given) [Benzobarbital] | > 46 µM |
| CCOC(=O)c1ccc(N)cc1 [Benzocaine] | > 46 µM |
| Cc1cc(Nc2ccccc2C(=O)O)ccc1Cl [Benzoic acid, 2-[(4-chloro-3-methylphenyl)amino]-] | > 46 µM |
| O=C(c1ccccc1)C(O)c1ccccc1 (stereo not given) [Benzoin] | > 46 µM |
| CCCCNc1ccc(C(=O)OCCOCCOCCOCCOCCOCCOCCOCCOCCOC)cc1 [Benzonatate] | > 46 µM |
| O=C(c1ccccc1)c1ccccc1 [Benzophenone] | > 46 µM |
| O=C(OOC(=O)c1ccccc1)c1ccccc1 [Benzoyl peroxide] | > 46 µM |
| N[S+]([O-])(=O)C1=C(Cl)C=C2\N=C(\CSCC3=CC=CC=C3)N[S+]([O-])(=O)C2=C1 [Benzthiazide] | > 46 µM |
| CN1[C@@H]2CC[C@H]1CC(OC(c1ccccc1)c1ccccc1)C2.C[S+](=O)([O-])O (stereo not given in full) [Benztropine] | > 46 µM |

| SMILES | IC50 of cell viability |
| --- | --- |
| CN(C)CCCOc1nn(Cc2ccccc2)c2ccccc12 [Benzydamine hydrochloride] | > 46 µM |
| OCc1ccccc1 [Benzyl alcohol] | > 46 µM |
| O=C(OCc1ccccc1)c1ccccc1 [Benzyl benzoate] | > 46 µM |
| N[S+](=O)([O-])c1cc2c(cc1Cl)N[C@H](Cc1ccccc1)N[S+]2(=O)[O-] [Benzylhydrochlorothiazide] | > 46 µM |
| Nc1ccc([S+](=O)([O-])NCc2ccccc2)cc1 [Benzylsulfamide] | > 46 µM |
| COc1c(O)cc2c(c1O)[C@H]1O[C@@H](CO)[C@@H](O)[C@@H](O)[C@@H]1OC2=O.O [Bergenin monohydrate] | > 46 µM |
| CC(C)C[C@H](NC(=O)[C@@H](O)[C@H](N)Cc1ccccc1)C(=O)O.Cl [Bestatin hydrochloride] | > 46 µM |
| CNCCc1ccccn1.C[S+](=O)([O-])O [Betahistine mesylate] | > 46 µM |
| C[N+](C)(C)CC(=O)O [Betaine hydrochloride] | > 46 µM |
| CCC(=O)OCC(=O)C1(OC(=O)CC)C(C)CC2C3CCC4=CC(=O)C=CC4(C)C3(F)C(O)CC21C (stereo not given) [Betamethasone dipropionate] | > 46 µM |
| C[C@H]1C[C@H]2[C@@H]3CCC4=CC(=O)C=C[C@]4(C)[C@@]3(F)[C@@H](O)C[C@]2(C)[C@@]1(O)C(=O)CO [Betamethasone] | > 46 µM |
| NCCc1cc[nH]n1 [Betazole hydrochloride] | > 46 µM |
| C/N=C(\NCc1ccccc1)[NH2+]C.C/N=C(\NCc1ccccc1)[NH2+]C.O=S(=O)([O-])[O-] [Bethanidine Sulfate (2:1)] | > 46 µM |
| COc1ccc(CCNC[C@H](O)COc2cccc(C)c2)cc1OC [Bevantolol] | > 46 µM |
| CC(C)(Oc1ccc(CCNC(=O)c2ccc(Cl)cc2)cc1)C(=O)O [Bezafibrate] | > 46 µM |
| [H][C@](C)(O)[C@@]1([H])C(=O)[N@]2C(C([O-])=O)=C(SC3CN4C=NC=[N+]4C3)[C@@]([H])(C)C12[H] (stereo not given in full) [Biapenem] | > 46 µM |
| CNCCCCOc1ccccc1Cc1ccccc1 [Bifemelane] | > 46 µM |
| O=C(COCCOCCOCC(=O)Nc1c(I)cc(I)c(C(=O)O)c1I)Nc1c(I)cc(I)c(C(=O)O)c1I [Biliscopin] | > 46 µM |
| NCc1ccccc1Sc1ccccc1CO [Bipenamol hydrochloride] | > 46 µM |
| OC(CCN1CCCCC1)(c1ccccc1)C1CC2C=CC1C2 (stereo not given) [Biperiden] | > 46 µM |
| CC(=O)Oc1ccc(C(c2ccc(OC(C)=O)cc2)c2ccccn2)cc1 [Bisacodyl] | > 46 µM |
| C/C(=C(/CCOC(=O)c1ccccc1)SS/C(CCOC(=O)c1ccccc1)=C(\C)N(C=O)Cc1cnc(C)nc1N)N(C=O)Cc1cnc(C)nc1N [Bisbentiamine] | > 46 µM |
| [O]=[Bi][O]C(=O)[O][Bi]=[O] [Bismuth subcarbonate] | > 46 µM |
| O=C1[O][Bi]([OH])[O]c2ccccc21 [Bismuth subsalicylate] | > 46 µM |
| CC(C)NCC(O)COc1ccc(COCCOC(C)C)cc1 (stereo not given) [Bisoprolol hemifumarate salt] | > 46 µM |

| SMILES | IC50 of cell viability |
| --- | --- |
| CC(C)NCC(O)COc1ccc(COCCOC(C)C)cc1.CC(C)NCC(O)COc1ccc(COCCOC(C)C)cc1.O=C(O)/C=C/C(=O)O (stereo not given) [Bisoprolol hemifumarate salt] | > 46 µM |
| CC(=O)Oc1ccc(C2(c3ccc(OC(C)=O)cc3)Oc3ccccc3NC2=O)cc1 [Bisoxatin Acetate] | > 46 µM |
| CC(C)(c1ccc(O)cc1)c1ccc(O)cc1 [Bisphenol A] | > 46 µM |
| [O-][S+](c1cc(Cl)cc(Cl)c1O)c1cc(Cl)cc(Cl)c1O [Bithionoloxide] | > 46 µM |
| S=C=Nc1ccc(N=C=S)cc1 [Bitoscanate] | > 46 µM |
| Cc1c(N)nc([C@@H](CC(N)=O)NC[C@H](N)C(N)=O)nc1C(=O)N[C@H](C(=O)N[C@H](C)[C@H](O)[C@H](C)C(=O)N[C@@H](C(=O)NCCc1nc(-c2nc(C(=O)NCCC[S+](C)C)cs2)cs1)[C@H](C)O)[C@H](O[C@@H]1O[C@@H](CO)[C@@H](O)[C@H](O)[C@@H]1O[C@H]1O[C@H](CO)[C@H](O)[C@H](OC(N)=O)[C@@H]1O)c1c[nH]cn1 [Bleomycin Sulfate] | > 46 µM |
| OB(O)O [Boric acid] | > 46 µM |
| O=C(Nc1ccccc1-c1ccc(Cl)cc1)c1cccnc1Cl [Boscalid] | > 46 µM |
| COc1cc(Nc2c(C#N)cnc3cc(OCCCN4CCN(C)CC4)c(OC)cc23)c(Cl)cc1Cl [Bosutinib Methanoate] | > 46 µM |
| CC(C)(C)OC(=O)c1ncn2c1[C@@H]1CCCN1C(=O)c1c(Br)cccc1-2 [Bretazenil] | > 46 µM |
| CC[N+](C)(C)Cc1ccccc1Br.Cc1ccc(S(=O)(=O)[O-])cc1 [Bretylium tosylate] | > 46 µM |
| CCN[C@@H]1CN(CCCOC)[S+](=O)([O-])c2sc([S+](N)(=O)[O-])cc21 [Brinzolamide] | > 46 µM |
| O=C1c2ccccc2C(=O)C1c1ccc(Br)cc1 [Bromindione] | > 46 µM |
| CC(C)C(Br)C(=O)NC(N)=O (stereo not given) [Bromisovalum] | > 46 µM |
| O=C(CCCN1CCC(O)(c2ccc(Br)cc2)CC1)c1ccc(F)cc1 [Bromperidol] | > 46 µM |
| Cc1ccc2c(Br)cc(Br)c(O)c2n1 [Broquinaldol] | > 46 µM |
| CC1=NN=C2C\N=C(C3=CC=CC=C3Cl)/C4=C(SC(=C4)Br)[N]12 [Brotizolam] | > 46 µM |
| OC[C@H]1O[C@H](C[C@@H]1O)N2\C=C(Br)/C(=O)NC2=O [Broxuridina] | > 46 µM |
| CCOc1ccc(NC(=O)CC(C)O)cc1 (stereo not given) [Bucetin] | > 46 µM |
| CC(C)(S)C(=O)NC(CS)C(=O)O (stereo not given) [Bucillamine] | > 46 µM |
| CC(C)(S)C(=O)N[C@H](CS)C(=O)O [Bucillamine] | > 46 µM |
| CC(C)(C)c1ccc(CN2CCN([C@H](c3ccccc3)c3ccc(Cl)cc3)CC2)cc1 [Buclodin] | > 46 µM |
| CCC[C@@H]1O[C@@H]2C[C@@H]3[C@@H]4CC\C5=C\C(=O)\C=C/[C@@]5(C)[C@H]4[C@H](O)C[C@@]3(C)[C@]2(O1)C(=O)CO [Budesonide] | > 46 µM |
| CCCCOc1ccc(CC(=O)NO)cc1 [Bufexamac] | > 46 µM |
| COc1cc(OC)c(C(=O)CCCN2CCCC2)c(OC)c1 [Buflomedil hydrochloride] | > 46 µM |
